Assay results from ChEMBL document CHEMBL1136335, “Structure elucidation of Sch 538415, a novel acyl carrier protein synthase inhibitor from a microorganism” (Bioorg Med Chem Lett, 2003).
pIC50: −log10 of the molar value.

How the values were obtained:
[1] = In vitro inhibitory activity against bacterial Holo-[acyl-carrier-protein] synthase; parameters: species or system Staphylococcus aureus
Staphylococcus aureus = assay: Antibacterial activity against Staphylococcus aureus(FDA 209P strain) at a concentration of 5 ug; type: functional

## Cc1cc(=O)n(C)c2c1C(=O)c1c(C)cc(=O)n(C)c1C2=O [DIAZAANTHRAQUINONE]
[1]
  pIC50: 5.38
Staphylococcus aureus
  Zone of inhibition: 12 mm
